# Paper PMC3914891, “Pentacyclic Nitrofurans with In Vivo Efficacy and Activity against Nonreplicating Mycobacterium tuberculosis” (PLoS ONE, 2014)
# Key:
# [1] = system: 9a resistant clones of M. tuberculosis H37Rv; test: microbe, parasite or virus in culture; type: cell-based, Mycobacterium tuberculosis
# [2] = system: H37Rv-T3; type: cell-based, M. tuberculosis
# [3] = system: H37Rv-5A1; type: cell-based, M. tuberculosis
# [4] = system: M. tuberculosis H37Rv; type: cell-based, Mycobacterium tuberculosis
# [5] = system: H37Rv-14A1; type: cell-based, M. tuberculosis
SMILES,"Cross resistance profile, Clone # 1 [1]","Cross resistance profile, Clone # 2 [1]","Cross resistance profile, Clone # 3 [1]","Cross resistance profile, Clone # 4 [1]","Cross resistance profile, Clone # 5 [1]","Cross resistance profile, Clone # 6 [1]","Cross resistance profile, Clone # 7 [1]","Cross resistance profile, Clone # 8 [1]","Cross resistance profile, Clone # 9 [1]","Cross resistance profile, Parent [1]",sensitivity of 9a resistant clones to the drug [1],further results
"O=[N+]([O-])c1ccc(C2=NOC(c3ccc(N4CCC(Oc5ccc(OC(F)(F)F)cc5)CC4)cc3)C2)o1 (stereo not drawn) [Compound 9a, 3-(5-Nitrofuran-2-yl)-5-(4-(4-(4-(trifluoromethoxy)phenoxy)piperidin-1-yl)phenyl)-4,5-dihydroisoxazole]",R,R,R,R,R,R,R,R,R,S,–,"MIC ([1]; Mycobacterium tuberculosis, H37RV): > 3.13 µg/mL; MIC [2]: 0.1 µg/mL; MIC [3]: 0.05 µg/mL; frequency of spontaneous resistance [4]: 3×10^−7; MIC [5]: 0.1 µg/mL"
CC(=O)NC[C@H]1CN(c2ccc(N3CCOCC3)c(F)c2)C(=O)O1 [Linezolid],–,–,–,–,–,–,–,–,–,–,retained sensitivity,–
CC1COc2c(N3CCN(C)CC3)c(F)cc3c(=O)c(C(=O)O)cn1c23 (stereo not drawn) [ofloxacin],–,–,–,–,–,–,–,–,–,–,retained sensitivity,–
O=[N+]([O-])c1cn2c(n1)OC[C@@H](OCc1ccc(OC(F)(F)F)cc1)C2 [PA-824],S,S,S,S,R,S,S,S,S,S,–,MIC [2]: 100 µg/mL; MIC [3]: 50 µg/mL; MIC [5]: 50 µg/mL
C[C@]1(COc2ccc(N3CCC(Oc4ccc(OC(F)(F)F)cc4)CC3)cc2)Cn2cc([N+](=O)[O-])nc2O1 [OPC-67683],S,S,S,S,R,S,S,S,S,S,–,–
[H]/N=C(/N)N[C@H]1[C@H](O)[C@@H](O)[C@H](O[C@@H]2O[C@@H](C)[C@](O)(C=O)[C@H]2O[C@@H]2O[C@@H](CO)[C@H](O)[C@@H](O)[C@@H]2NC)[C@@H](N/C(N)=N\[H])[C@@H]1O [Streptomycin],–,–,–,–,–,–,–,–,–,–,retained sensitivity,–
NNC(=O)c1ccncc1 [Isoniazid],–,–,–,–,–,–,–,–,–,–,retained sensitivity,–
CO[C@H]1/C=C/O[C@@]2(C)Oc3c(C)c(O)c4c(O)c(c(/C=N/N5CCN(C)CC5)c(O)c4c3C2=O)NC(=O)/C(C)=C\C=C\[C@H](C)[C@H](O)[C@@H](C)[C@@H](O)[C@@H](C)[C@H](OC(C)=O)[C@@H]1C [Rifampin],–,–,–,–,–,–,–,–,–,–,retained sensitivity,–
O=[N+]([O-])c1ccc(C2=NOC(c3ccc(N4CCOCC4)cc3)C2)o1 (stereo not drawn) [Compound 2],R,R,R,R,R,R,R,R,R,S,–,–
CC[C@@H](CO)NCCN[C@@H](CC)CO [Ethambutol],–,–,–,–,–,–,–,–,–,–,retained sensitivity,–
